In patent US20220370451A1, “INHIBITORS OF HUMAN IMMUNODEFICIENCY VIRUS REPLICATION” (VIIV HEALTHCARE UK ( No. 5) LIMITED, priority 2019, published 2022):
Read-outs that look alike come from different tables or passages of the source.

How the values were obtained:
Format in all cases: cell-based
[1] = system: recombinant NL4-3 virus; experiment: HIV cell culture assay (luciferase reporter antiviral activity)
Experimental: HIV cell culture assay—MT=2 cells, 293T cells and the proviral DNA clone of NL4-3 virus were obtained from the NIH AIDS Research and Reference Reagent Program. MT=2 cells were propagated in RPMI 1640 media supplemented with 10% heat inactivated fetal bovine serum (FBS), […] penicillin G and up to 100 units/mL streptomycin. The 293T cells were propagated in DMEM media supplemented with 10% heat inactivated FBS, […] penicillin G and […] streptomycin. A recombinant NL4-3 proviral clone, in which a section of the nef gene was replaced with the Renilla luciferase gene, was used to make the reference virus used in these studies. The recombinant virus was prepared through transfection of the recombinant NL4-3 proviral clone into 293T cells using Transit-293 Transfection Reagent from Mirus Bio LLC (Madison, Wis.). Supernatent was harvested after 2-3 days and the amount of virus present was titered in MT=2 cells using luciferase enzyme activity as a marker by measuring luciferase enzyme activity. Luciferase was quantitated using the EnduRen Live Cell Substrate from Promega (Madison, Wis.). Antiviral activities of compounds toward the recombinant virus were quantified by measuring luciferase activity in MT=2 cells infected for 4-5 days with the recombinant virus in the presence of serial dilutions of the compound.
The 50% effective concentration (EC50) was calculated by using the exponential form of the median effect equation where (Fa)=1/[1+(ED50/drug conc.)m] (Johnson V A, Byington RT. Infectivity Assay. In Techniques in HIV Research. ed. Aldovini A, Walker B D. 71-76. New York: Stockton Press.1990). The 50% inhibitory concentration (EC50) was calculated by using the exponential form of the median effect equation where percent inhibition=1/[1+(EC50/drug concentration)m], where m is a parameter that reflects the slope of the concentration-response curve.

[2] = system: uninfected MT2 cells; experiment: Compound cytotoxicity, XTT-based colorimetric assay
Experimental: (§1) Compound cytotoxicity and the corresponding CC50 values were determined using the same protocol as described in the antiviral assay except that uninfected cells were used. Cytotoxicity was assessed on day 4 in uninfected MT2 cells by using a XTT (2,3-bis[2-Methoxy-4-nitro-5-sulfophenyl]-2H-tetrazolium-5-carboxyanilide inner salt)-based colorimetric assay (Sigma-Aldrich, St Louis, Mo.).

[3] = as above; conditions: human; uninfected MT2 cells, day 4, XTT
Experimental: as §1

[4] = Human immunodeficiency virus 1, NL43, MT2

Row | SMILES | EC50 ([1]; MT-2 cells infected for 4-5 days with recombinant NL4-3 Renilla luciferase virus, read-out: EC50) [nM] | CC50 [2] [nM] | EC50 [1, 4] [nM] | CC50 at 4 days [3] [nM]
1 | Cc1nccnc1-c1ccc2c(=O)n(-c3ccc(Cl)c4c(NS(C)(=O)=O)nn(C)c34)c([C@H](Cc3cc(F)cc(F)c3)NC(=O)Cc3cn(C(C)C)c4ccccc34)nc2c1 [Example 8, (S)-N-(1-((3P)-3-(4-chloro-1-methyl-3-(methylsulfonamido)-1H-indazol-7-yl)-7-(3-methylpyrazin-2-yl)-4-oxo-3,4-dihydroquinazolin-2-yl)-2-(3,5-difluorophenyl)ethyl)-2-(1-isopropyl-1H-indol-3-yl)acetamide] | 0.45 | > 500 | – | –
2 | CC(C)(C(=O)N[C@@H](Cc1cc(F)cc(F)c1)c1nc2nc(-c3ccccc3F)ccc2c(=O)n1-c1ccc(Cl)c2c(NS(=O)(=O)C3CC3)nn(CC(F)F)c12)n1ccc(C2CC2)n1 (atropisomer, axis not shown; (P)) [Example 21, (S)-N-(1-((3P)-3-(4-chloro-3-(cyclopropanesulfonamido)-1-(2,2-difluoroethyl)-1H-indazol-7-yl)-7-(2-fluorophenyl)-4-oxo-3,4-dihydropyrido[2,3-d]pyrimidin-2-yl)-2-(3,5-difluorophenyl)ethyl)-2-(3-cyclopropyl-1H-pyrazol-1-yl)-2-methylpropanamide] | – | – | 2.3 | > 500
3 | Cc1nccnc1-c1ccc2c(=O)n(-c3ccc(Cl)c4c(NS(C)(=O)=O)nn(C)c34)c([C@H](Cc3cc(F)cc(F)c3)NC(=O)Cn3nc(C4CC4)cc3C)nc2c1 (atropisomer, axis not shown; (P)) [Example 10, (S)-N-(1-((3P)-3-(4-chloro-1-methyl-3-(methylsulfonamido)-1H-indazol-7-yl)-7-(3-methylpyrazin-2-yl)-4-oxo-3,4-dihydroquinazolin-2-yl)-2-(3,5-difluorophenyl)ethyl)-2-(3-cyclopropyl-5-methyl-1H-pyrazol-1-yl)acetamide] | – | – | 0.21 | > 500
4 | Cn1nc(NS(C)(=O)=O)c2c(Cl)ccc(-n3c([C@H](Cc4cc(F)cc(F)c4)NC(=O)Cn4ccc(C(C)(C)C)n4)nc4nc(-c5ccccc5F)ccc4c3=O)c21 (atropisomer, axis not shown; (P)) [Example 14, (S)-2-(3-(tert-butyl)-1H-pyrazol-1-yl)-N-(1-((3P)-3-(4-chloro-1-methyl-3-(methylsulfonamido)-1H-indazol-7-yl)-7-(2-fluorophenyl)-4-oxo-3,4-dihydropyrido[2,3-d]pyrimidin-2-yl)-2-(3,5-difluorophenyl)ethyl)acetamide] | – | – | 0.53 | > 500
5 | O=C(Cn1nc(C(F)F)cc1C1CC1)N[C@@H](Cc1cc(F)cc(F)c1)c1nc2cc(-c3ccccn3)ccc2c(=O)n1-c1ccc(Cl)c2c(NS(=O)(=O)C3CC3)nn(CC(F)F)c12 (atropisomer, axis not shown; (P)) [Example 33, (S)-N-(1-((3P)-3-(4-chloro-3-(cyclopropanesulfonamido)-1-(2,2-difluoroethyl)-1H-indazol-7-yl)-4-oxo-7-(pyridin-2-yl)-3,4-dihydroquinazolin-2-yl)-2-(3,5-difluorophenyl)ethyl)-2-(5-cyclopropyl-3-(difluoromethyl)-1H-pyrazol-1-yl)acetamide] | – | – | 0.79 | > 500
6 | Cn1nc(NS(C)(=O)=O)c2c(Cl)ccc(-n3c([C@H](Cc4cc(F)cc(F)c4)NC(=O)Cn4ccc5ccccc54)nc4cc(-c5ccccc5F)ccc4c3=O)c21 [Example 30, (S)-N-(1-((3P)-3-(4-chloro-1-methyl-3-(methylsulfonamido)-1H-indazol-7-yl)-7-(2-fluorophenyl)-4-oxo-3,4-dihydroquinazolin-2-yl)-2-(3,5-difluorophenyl)ethyl)-2-(1H-indol-1-yl)acetamide] | – | – | 3 | > 500
